Drawing on ChEMBL document CHEMBL3297661, “1-Substituted-5-[(3,5-dinitrobenzyl)sulfanyl]-1H-tetrazoles and their isosteric analogs: A new class of selective antitubercular agents active against drug-susceptible and multidrug-resistant mycobacteria” (Eur J Med Chem, 2014), this text covers MIC for 16 compounds.

Holding throughout (assay type): functional
Assay [1] concerns Mycobacterium tuberculosis. The assay is described as follows: Antimycobacterial activity against Mycobacterium tuberculosis CNCTC My 331/88 after 14 days by micromethod. The note with it: CNCTC My 331/88, 336 h.
Assay [2] relates to Mycobacterium tuberculosis. Description: Antimycobacterial activity against Mycobacterium tuberculosis CNCTC My 331/88 after 21 days by micromethod. The note with it: CNCTC My 331/88, 504 h.
The test system of assay [3] is Mycobacterium avium. Description: Antimycobacterial activity against Mycobacterium avium CNCTC My 330/88 after 14 days by micromethod. The note with it: CNCTC My 330/88, 336 h.
The test system of assay [4] is Mycobacterium avium. The assay is described as follows: Antimycobacterial activity against Mycobacterium avium CNCTC My 330/88 after 21 days by micromethod. The note with it: CNCTC My 330/88, 504 h.
Assay [5] concerns Mycobacterium kansasii. Description: Antimycobacterial activity against Mycobacterium kansasii CNCTC My 235/80 after 7 days by micromethod. The following applies: CNCTC My 235/80, 168 h.
Assay [6] concerns Mycobacterium kansasii. Description: Antimycobacterial activity against Mycobacterium kansasii CNCTC My 235/80 after 14 days by micromethod. The following applies: CNCTC My 235/80, 336 h.
The subject of assay [7] is Mycobacterium kansasii. The assay is described as follows: Antimycobacterial activity against Mycobacterium kansasii CNCTC My 235/80 after 21 days by micromethod. The note with it: CNCTC My 235/80, 504 h.
Assay [8] concerns Mycobacterium kansasii. Description: Antimycobacterial activity against Mycobacterium kansasii 6509/96 after 7 days by micromethod. The note with it: 6509/96, 168 h.
The subject of assay [9] is Mycobacterium kansasii. Description: Antimycobacterial activity against Mycobacterium kansasii 6509/96 after 14 days by micromethod. The following applies: 6509/96, 336 h.
For assay [10], the system named is Mycobacterium kansasii. The assay is described as follows: Antimycobacterial activity against Mycobacterium kansasii 6509/96 after 21 days by micromethod. The following applies: 6509/96, 504 h.

Structures are written as SMILES. ≈ marks a conversion by molar mass, not a printed value.

For the compound `O=[N+]([O-])c1cc(COc2nnnn2-c2ccc(Cl)cc2)cc([N+](=O)[O-])c1`, the MIC in assay [1] came to 2 µM (≈ 0.753 µg/mL); in [2], 4 µM (≈ 1.51 µg/mL); in [3], 32 µM (≈ 12.1 µg/mL); in [4], 62 µM (≈ 23.4 µg/mL); in assay [5], 8 µM (≈ 3.01 µg/mL); in assay [6], 16 µM (≈ 6.03 µg/mL). Also, the MIC in assay [7] was 32 µM (≈ 12.1 µg/mL); in [8], 8 µM (≈ 3.01 µg/mL); in assay [9], 16 µM (≈ 6.03 µg/mL); in assay [10] it was 32 µM (≈ 12.1 µg/mL).

Regarding `COc1ccc(-n2nnnc2OCc2cc([N+](=O)[O-])cc([N+](=O)[O-])c2)cc1`, the MIC in assay [1] is 2 µM (≈ 0.745 µg/mL); in assay [2], 2 µM (≈ 0.745 µg/mL); in assay [3], 16 µM (≈ 5.96 µg/mL); in assay [4], 32 µM (≈ 11.9 µg/mL); in assay [5], 4 µM (≈ 1.49 µg/mL); in assay [6], 8 µM (≈ 2.98 µg/mL). For the same compound, the MIC in [7] came out at 16 µM (≈ 5.96 µg/mL); in assay [8] it was 4 µM (≈ 1.49 µg/mL); in assay [9], 16 µM (≈ 5.96 µg/mL); in assay [10], 16 µM (≈ 5.96 µg/mL).

In the case of `CCN(CC)c1ccc(-n2nnnc2SCc2cc([N+](=O)[O-])cc([N+](=O)[O-])c2)cc1`, the minimal inhibitory concentration (MIC) in assay [1] is 2 µM (≈ 0.859 µg/mL); in assay [2], 2 µM (≈ 0.859 µg/mL); in assay [3], 62 µM (≈ 26.6 µg/mL); in assay [4], 62 µM (≈ 26.6 µg/mL); in assay [5] it was 4 µM (≈ 1.72 µg/mL); in assay [6], 8 µM (≈ 3.44 µg/mL). Further, the MIC in assay [7] worked out at 32 µM (≈ 13.7 µg/mL); in [8] it was 8 µM (≈ 3.44 µg/mL); in assay [9], 16 µM (≈ 6.87 µg/mL); in assay [10], 62 µM (≈ 26.6 µg/mL).

Turning to `COc1ccc(-n2nnnc2S(=O)(=O)Cc2cc([N+](=O)[O-])cc([N+](=O)[O-])c2)cc1`, the MIC in assay [1] came out at 8 µM (≈ 3.36 µg/mL); in assay [2], 8 µM (≈ 3.36 µg/mL); in assay [3], 125 µM (≈ 52.5 µg/mL); in assay [4], 125 µM (≈ 52.5 µg/mL); in assay [5], 125 µM (≈ 52.5 µg/mL); in assay [6] it was 250 µM (≈ 105 µg/mL). Also, the minimum inhibitory concentration (MIC) in assay [7] was determined as 250 µM (≈ 105 µg/mL); in [8], 125 µM (≈ 52.5 µg/mL); in assay [9] it was 125 µM (≈ 52.5 µg/mL); in assay [10] it was 125 µM (≈ 52.5 µg/mL).

With `Cc1ccc(-n2nnnc2SCc2cc([N+](=O)[O-])cc([N+](=O)[O-])c2)cc1C`, the minimal inhibitory concentration (MIC) in assay [1] is 500 µM (≈ 193 µg/mL); in assay [2], 500 µM (≈ 193 µg/mL); in assay [3] it was 250 µM (≈ 96.6 µg/mL); in assay [4], 250 µM (≈ 96.6 µg/mL); in assay [5], 250 µM (≈ 96.6 µg/mL); in assay [6], 250 µM (≈ 96.6 µg/mL). Besides, the MIC in [7], in [8], in assay [9] and in [10] was 250 µM (≈ 96.6 µg/mL) in each case.

With `O=[N+]([O-])c1cc(C[Se]c2nnnn2-c2ccccc2)cc([N+](=O)[O-])c1`, the minimal inhibitory concentration (MIC) turned out to be 8 µM (≈ 3.24 µg/mL) in [1]; 8 µM (≈ 3.24 µg/mL) in assay [2]; 32 µM (≈ 13 µg/mL) in assay [3]; 32 µM (≈ 13 µg/mL) in assay [4]; 8 µM (≈ 3.24 µg/mL) in assay [5]; 8 µM (≈ 3.24 µg/mL) in [6]. The minimal inhibitory concentration (MIC) in assay [7] was 16 µM (≈ 6.48 µg/mL); in [8], 16 µM (≈ 6.48 µg/mL); in [9], 16 µM (≈ 6.48 µg/mL); in assay [10], 32 µM (≈ 13 µg/mL).

With `O=[N+]([O-])c1ccc(-n2nnnc2SCc2ccccc2)cc1`, the MIC in [1] was found to be 125 µM (≈ 39.2 µg/mL); in [2], 125 µM (≈ 39.2 µg/mL); in [3], 62 µM (≈ 19.4 µg/mL); in [4], 62 µM (≈ 19.4 µg/mL); in assay [5], 16 µM (≈ 5.01 µg/mL); in assay [6], 32 µM (≈ 10 µg/mL). The minimal inhibitory concentration (MIC) in [7] came to 32 µM (≈ 10 µg/mL); in [8] it was 16 µM (≈ 5.01 µg/mL); in [9], 62 µM (≈ 19.4 µg/mL); in assay [10], 62 µM (≈ 19.4 µg/mL).

Turning to `O=[N+]([O-])c1ccc(CSc2nnnn2-c2ccc([N+](=O)[O-])cc2)cc1`, the minimal inhibitory concentration (MIC) in assay [1], in assay [2], in assay [3], in assay [4], in assay [5] and in [6] was 250 µM (≈ 89.6 µg/mL) throughout. In addition, the minimum inhibitory concentration (MIC) in assay [7], in assay [8], in assay [9] and in [10] was 250 µM (≈ 89.6 µg/mL) each time.

Take `COc1ccc(-n2nnnc2SCc2cc(N)cc(N)c2)cc1`: the MIC amounted to 125 µM (≈ 41.1 µg/mL) in assay [1]; 125 µM (≈ 41.1 µg/mL) in assay [2]; 1000 µM (≈ 328 µg/mL) in assay [3]; 1000 µM (≈ 328 µg/mL) in assay [4]; 250 µM (≈ 82.1 µg/mL) in assay [5]; 1000 µM (≈ 328 µg/mL) in [6]. Moreover, the MIC in [7] turned out to be 1000 µM (≈ 328 µg/mL); in [8] it was 250 µM (≈ 82.1 µg/mL); in assay [9], 1000 µM (≈ 328 µg/mL); in [10], 1000 µM (≈ 328 µg/mL).

For the compound `O=[N+]([O-])c1cc(CSc2nnnn2-c2ccc(Cl)cc2)cc([N+](=O)[O-])c1`, the minimal inhibitory concentration (MIC) in assay [1] is 1 µM (≈ 0.393 µg/mL); in assay [2], 2 µM (≈ 0.786 µg/mL); in assay [3], 125 µM (≈ 49.1 µg/mL); in assay [4], 125 µM (≈ 49.1 µg/mL); in [5], 2 µM (≈ 0.786 µg/mL); in [6], 4 µM (≈ 1.57 µg/mL). The MIC in assay [7] was 4 µM (≈ 1.57 µg/mL); in [8] it was 2 µM (≈ 0.786 µg/mL); in [9], 4 µM (≈ 1.57 µg/mL); in assay [10], 4 µM (≈ 1.57 µg/mL).

`O=[N+]([O-])c1cc(CSc2nnn[nH]2)cc([N+](=O)[O-])c1`: the MIC in assay [1] turned out to be 1000 µM (≈ 282 µg/mL); in assay [2], 1000 µM (≈ 282 µg/mL); in assay [3], 1000 µM (≈ 282 µg/mL); in [4] it was 1000 µM (≈ 282 µg/mL); in assay [5] it was 250 µM (≈ 70.6 µg/mL); in assay [6], 1000 µM (≈ 282 µg/mL). Moreover, the MIC was found to be 1000 µM (≈ 282 µg/mL) in assay [7], 250 µM (≈ 70.6 µg/mL) in assay [8], 500 µM (≈ 141 µg/mL) in [9] and 500 µM (≈ 141 µg/mL) in [10].

With `O=[N+]([O-])c1cc(COc2nnnn2-c2ccccc2)cc([N+](=O)[O-])c1`, the MIC was found to be 2 µM (≈ 0.685 µg/mL) in assay [1]; 4 µM (≈ 1.37 µg/mL) in assay [2]; 125 µM (≈ 42.8 µg/mL) in assay [3]; 125 µM (≈ 42.8 µg/mL) in assay [4]; 8 µM (≈ 2.74 µg/mL) in assay [5]; 16 µM (≈ 5.48 µg/mL) in [6]. Moreover, the MIC turned out to be 32 µM (≈ 11 µg/mL) in assay [7], 8 µM (≈ 2.74 µg/mL) in assay [8], 16 µM (≈ 5.48 µg/mL) in assay [9] and 32 µM (≈ 11 µg/mL) in assay [10].

Turning to `O=[N+]([O-])c1cc(CSc2ccccc2)cc([N+](=O)[O-])c1`, the minimum inhibitory concentration (MIC) in [1], in [2], in assay [3], in assay [4], in assay [5] and in assay [6] was 250 µM (≈ 72.6 µg/mL) throughout. Moreover, the minimal inhibitory concentration (MIC) in [7] amounted to 250 µM (≈ 72.6 µg/mL); in assay [8], 500 µM (≈ 145 µg/mL); in assay [9], 500 µM (≈ 145 µg/mL); in [10], 500 µM (≈ 145 µg/mL).

`O=[N+]([O-])c1cc(CSc2nnnn2-c2ccccc2)cc([N+](=O)[O-])c1`: the MIC in assay [1] was found to be 4 µM (≈ 1.43 µg/mL); in assay [2], 4 µM (≈ 1.43 µg/mL); in [3], 62 µM (≈ 22.2 µg/mL); in assay [4], 62 µM (≈ 22.2 µg/mL); in [5], 2 µM (≈ 0.717 µg/mL); in assay [6], 4 µM (≈ 1.43 µg/mL). Further, the MIC in assay [7] stood at 16 µM (≈ 5.73 µg/mL); in assay [8], 2 µM (≈ 0.717 µg/mL); in assay [9], 2 µM (≈ 0.717 µg/mL); in assay [10], 4 µM (≈ 1.43 µg/mL).

`COC(=O)c1cccc(-n2nnnc2SCc2cc([N+](=O)[O-])cc([N+](=O)[O-])c2)c1`: the minimal inhibitory concentration (MIC) in assay [1] came to 8 µM (≈ 3.33 µg/mL); in assay [2], 16 µM (≈ 6.66 µg/mL); in assay [3] it was 250 µM (≈ 104 µg/mL); in assay [4], 250 µM (≈ 104 µg/mL); in assay [5] it was 500 µM (≈ 208 µg/mL); in assay [6], 500 µM (≈ 208 µg/mL). For the same compound, the minimum inhibitory concentration (MIC) in assay [7], in assay [8], in assay [9] and in assay [10] was 500 µM (≈ 208 µg/mL) each time.

With `COc1ccc(-n2nnnc2SCc2ccc([N+](=O)[O-])cc2[N+](=O)[O-])cc1`, the minimal inhibitory concentration (MIC) in assay [1] came out at 8 µM (≈ 3.11 µg/mL); in [2] it was 8 µM (≈ 3.11 µg/mL); in assay [3] it was 62 µM (≈ 24.1 µg/mL); in assay [4], 62 µM (≈ 24.1 µg/mL); in assay [5], 32 µM (≈ 12.4 µg/mL); in [6] it was 62 µM (≈ 24.1 µg/mL). In addition, the minimal inhibitory concentration (MIC) in [7] was determined as 62 µM (≈ 24.1 µg/mL); in [8], 8 µM (≈ 3.11 µg/mL); in [9] it was 16 µM (≈ 6.21 µg/mL); in assay [10], 32 µM (≈ 12.4 µg/mL).

One may read the MIC as the lowest concentration found to suppress growth. Read a high MIC as weaker potency.
